For series [1], the target named is T1, KDR (Homo sapiens, UniProt P35968).
T1 construct: host or cells: HUVEC (human umbilical vein endothelial cells)
The series is described as follows: KDR autophosphorylation ELISA in HUVEC cells. Format: cell-based. The settings on record: VEGF165-stimulated, phospho-KDR ELISA, 1 h compound incubation. As for the experimental part: Example C: KDR Autophosphorylation ELISA in HUVEC Cells
umbilical vein endothelial cells or HUVEC (Lonza #C2519A) were seeded at 2×10^4 cells/well onto 96-well plates (Corning #3904), in EGM-2 growth medium (Lonza #CC-3162) containing 1% Penicillin Streptomycin (Thermo Fisher #15140-122). HUVEC cells were incubated at 37° C., 5% CO2 for 24 h and then starved for 24 h in serum-free EBM-2 basal medium (Lonza #CC-3156) containing 1% Penicillin Streptomycin. Test compounds were serially diluted to produce an 8-point dose curve in fresh serum-free medium to a final concentration of 0.3% DMSO (vehicle) and added to the cells and incubated for 1 h. Cells were then stimulated with 100 ng/mL recombinant human VEGF165 (R&D Systems #293-VE-500) for 5 min, washed with cold PBS, and immediately lysed with 130 μL of cold IX lysis buffer [20 mM Tris, 137 mM sodium chloride, 2 mM EDTA, 10% glycerol, 1% NP-40 alternative, 1 mM activated sodium orthovanadate, 1 mM PefaBloc SC (Sigma-Aldrich #11429868001), protease/phosphatase inhibitor tablet (Thermo Fisher #A32959)]. Lysates were collected and 100 μL/well added into the human phospho-KDR DuoSet IC ELISA (R&D Systems #DYC 1766-2). Assay was performed according to manufacturer's instructions and sample phospho-KDR concentrations were extrapolated using human phospho-KDR control (R&D Systems #841421) as a standard. Positive control wells (100% activity) contained VEGF165-stimulated, DMSO-treated cell lysates. Negative control wells (0% activity) contained non-stimulated cell lysates. IC50 values were calculated by nonlinear regression analysis using a 4-parameter logistic curve fit in ActivityBase XE (IDBS).
(In general: An ELISA detects its analyte on a solid surface through an enzyme-linked reagent.)

The nature of series [2]: Microsomal assay, mouse liver microsome stability. Particulars: liver microsomes, pH 7.4. For orientation: Liver microsomes are vesicles of endoplasmic reticulum, rich in cytochrome P450 enzymes.
Description: Liver microsomes tissue fractions were used for in vitro assessment of metabolic stability of compounds by cytochrome P450 (CYP450) (for example, CYP3A4, CYP2C9) mediated phase I oxidation, and metabolism through other pathways. Human, mouse, rat, and dog liver microsomes tissue fractions were obtained from Corning Gentest and BioreclamationIVT.
The assay was carried out in 96-well microtiter plates. Compounds were incubated (N=l) at 37° C. in the presence of liver microsomes. Reaction mixtures (25 μL) contained a final concentration of 1 μM test compound, 0.5 mg/mL liver microsomes (LM) protein, and 1 mM NADPH in 100 mM potassium phosphate, pH 7.4 buffer with 3.3 mM MgCl2. The extent of metabolism was calculated as the disappearance of the test compound, compared to the 0-min control reaction incubations. Verapamil was included as a positive control to verily assay performance.
At each of the four time points, 150 μL of quench solution (100% acetonitrile with 0.1% formic acid) with internal standard (bucetin for positive ESI mode) was transferred to each well. Plates were sealed and centrifuged at 10° C. for 15 minutes at 4000 rpm. The supernatant was transferred to fresh plates for LC/MS/MS analysis.
All samples were analyzed on LC/MS/MS using an AB Sciex API 4000 instrument, coupled to a Shimadzu LC-20AD LC Pump system. Analytical samples were separated using a Waters Atlantis T3 dC18 reverse phase HPLC column (20 mm×2.1 mm) at a flow rate of 0.5 mL/min. The mobile phase consisted of 0.1% formic acid in water (solvent A) and 0.1% formic acid in 100% acetonitrile (solvent B).

Molecules are shown by their SMILES. pIC50: −log10 of the molar value. Some results are limits rather than exact numbers.

T1 sequence (P35968 20-1356): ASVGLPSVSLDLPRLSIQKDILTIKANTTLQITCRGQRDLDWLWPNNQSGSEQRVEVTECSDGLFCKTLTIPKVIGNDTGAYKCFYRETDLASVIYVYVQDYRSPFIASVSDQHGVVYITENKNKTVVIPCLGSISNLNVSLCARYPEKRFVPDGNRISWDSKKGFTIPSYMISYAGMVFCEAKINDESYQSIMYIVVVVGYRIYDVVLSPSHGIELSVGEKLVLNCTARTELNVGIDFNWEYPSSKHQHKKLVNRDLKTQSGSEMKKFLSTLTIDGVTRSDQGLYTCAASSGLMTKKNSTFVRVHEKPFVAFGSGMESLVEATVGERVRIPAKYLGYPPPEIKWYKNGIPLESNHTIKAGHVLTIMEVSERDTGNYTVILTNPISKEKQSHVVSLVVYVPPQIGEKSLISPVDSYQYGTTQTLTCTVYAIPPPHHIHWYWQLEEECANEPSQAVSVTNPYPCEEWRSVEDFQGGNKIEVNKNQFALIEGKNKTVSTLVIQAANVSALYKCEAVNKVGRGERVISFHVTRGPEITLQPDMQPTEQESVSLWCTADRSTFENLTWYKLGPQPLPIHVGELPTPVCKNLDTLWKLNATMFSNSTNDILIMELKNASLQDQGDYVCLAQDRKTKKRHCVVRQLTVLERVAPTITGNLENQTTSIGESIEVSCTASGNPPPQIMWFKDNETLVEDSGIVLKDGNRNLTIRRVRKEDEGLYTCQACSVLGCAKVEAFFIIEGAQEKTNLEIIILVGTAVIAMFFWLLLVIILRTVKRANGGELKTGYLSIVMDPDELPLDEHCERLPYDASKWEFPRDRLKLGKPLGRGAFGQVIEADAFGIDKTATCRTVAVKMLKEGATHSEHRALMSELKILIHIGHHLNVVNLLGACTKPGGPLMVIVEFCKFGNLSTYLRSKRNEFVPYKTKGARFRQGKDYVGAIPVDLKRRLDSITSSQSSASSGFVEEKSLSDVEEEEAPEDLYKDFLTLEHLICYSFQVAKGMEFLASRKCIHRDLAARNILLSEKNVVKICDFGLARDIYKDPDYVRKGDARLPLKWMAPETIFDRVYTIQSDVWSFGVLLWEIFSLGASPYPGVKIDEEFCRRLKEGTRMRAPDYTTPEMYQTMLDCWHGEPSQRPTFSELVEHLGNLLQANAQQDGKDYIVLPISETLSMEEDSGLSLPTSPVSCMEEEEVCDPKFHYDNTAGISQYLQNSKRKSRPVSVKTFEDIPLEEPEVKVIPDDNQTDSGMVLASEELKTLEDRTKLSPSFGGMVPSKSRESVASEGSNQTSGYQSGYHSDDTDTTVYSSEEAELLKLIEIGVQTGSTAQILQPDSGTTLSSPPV

A word on the pIC50: it is −log10 of the IC50, conventionally taken in molar units. The low end stands for a high IC50, the high end for a low IC50. A word on the half-life: it is the time needed for the level to fall by half in the phase considered. A low value points to rapid decline. As for `COc1cc2nccc(Oc3ncc(NC(=O)C4(C(=O)N(C)c5ccc(F)cc5)CC4)cc3F)c2cc1C(N)=O` [Compound 35, 1-N-[6-(6-Carbamoyl-7-methoxyquinolin-4-yl)oxy-5-fluoropyridin-3-yl]-1-N′-(4-fluorophenyl)-1-N′-methylcyclopropane-1,1-dicarboxamide], the pIC50 in series [1] is < 6.52. In series [2], the half-life at 1 μM came out at 1.9 min.

For `COc1cc2nccc(Oc3ccc(NC(=O)C4(C(=O)N(C)c5ccc(F)cc5)CC4)cc3F)c2cc1OC` [Compound 10, N-(4-((6,7-Dimethoxyquinolin-4-yl)oxy)-3-fluorophenyl)-N-(4-fluorophenyl)-N-methylcyclopropane-1,1-dicarboxamide], in series [1], the pIC50 is < 6.52. The same compound returned a half-life at 1 μM in series [2] of 4.1 min.

As for `COc1cc2nccc(Oc3ccc(NC(=O)C4(C(=O)N(C)c5ccc(F)cc5)CC4)cc3)c2cc1OC` [Compound 9, 1-N-[4-(6,7-Dimethoxyquinolin-4-yl)oxyphenyl]-1-N′-(4-fluorophenyl)-1-N′-methylcyclopropane-1,1-dicarboxamide], in series [1], the pIC50 is < 6.52. This compound also gave a half-life at 1 μM in series [2] of 3.1 min.

Regarding `COc1cc2nccc(Oc3ccc(N(C)C(=O)C4(C(=O)Nc5ccc(F)cc5)CC4)cc3F)c2cc1OC` [Compound 51, 1-N′-[4-(6,7-Dimethoxyquinolin-4-yl)oxy-3-fluorophenyl]-1-N-(4-fluorophenyl)-1-N′-methylcyclopropane-1,1-dicarboxamide], the half-life at 1 μM in series [2] amounted to 9.6 min.

Regarding `CNC(=O)c1cc2c(Oc3ncc(NC(=O)C4(C(=O)N(C)c5ccc(F)cc5)CC4)cc3F)ccnc2cc1OC` [Compound 34, 1-N-[5-Fluoro-6-[7-methoxy-6-(methylcarbamoyl)quinolin-4-yl]oxypyridin-3-yl]-1-N′-(4-fluorophenyl)-1-N′-methylcyclopropane-1,1-dicarboxamide], the pIC50 in series [1] was < 6.52. Further, in series [2], the half-life at 1 μM stood at 2.6 min.

Values taken from patent US20220089541A1, “Compounds for the Treatment of Kinase-Dependent Disorders” (Exelixis, Inc., priority 2019, published 2022).
